{
  "source": "patent US20220107328A1",
  "about": "“METHODS OF TREATING LIVER DISEASES” (Camp4 Therapeutics Corporation, priority 2018, published 2022)",
  "key": {"[1]": {"test_system": "PNPLA3 mRNA", "test": "qRT-PCR of PNPLA3 mRNA in compound-treated primary human hepatocytes", "conditions": "for PNPLA3 mRNA, TGFβ and BMP pathway inhibitors (in words) / Relative PNPLA3 mRNA expression: primary human hepatocytes; for Relative PNLPA3 mRNA expression in HU4282 cells: Lonza HU4282 hepatocytes; for Relative PNPLA3 mRNA expression in Yecuris RMG cells: Yecuris RMG hepatocytes; for Relative PNPLA3 mRNA levels: 10 μM, human hepatocytes, mean of three replicates ± standard deviation; for Relative PINPLA3 mRNA: hepatocytes", "method": "Cryopreserved hepatocytes were cultured in plating media for 16 hours, transferred to maintenance media for 4 hours. Cultured on serum-free media for 2 hours, then a compound was added. The hepatocytes were maintained on the serum-free media for 16 hours prior to gene expression analysis.\nHuman hepatocytes cultured as described above were plated in 24-well format, adding 375,000 cells per well in a volume of 500 μl plating medium. Four hours before treatment, cells were washed with PBS and the medium was changed to either: fresh maintenance medium (complete) or modified maintenance medium.\nCompound stocks were prepared at 1000× final concentration and added in a 2-step dilution to the medium to reduce risk of a compound precipitating out of solution when added to the cells, and to ensure reasonable pipetting volumes. One at a time, each compound was first diluted 10-fold in warm (about 37° C.) modified maintenance medium (initial dilution=ID), mixed by vortexing, and the ID was diluted 100-fold into the cell culture (e.g. 5.1 μl into 1 well of a 24-well plate containing 0.5 mL medium). The plate was mixed by carefully swirling and after all wells were treated and returned to the incubator overnight. If desired, separate plates/wells were treated with vehicle-only controls and/or positive controls. If using multi-well plates, controls were included on each plate. After about 18 hours, cells were harvested for further analysis, e.g., ChIP-seq, RNA-seq, ATAC-seq, etc.\nAnalysis of the fold changes in expression as measured by qRT-PCR were performed using the technique below. The control was DMSO, and the treatment was the selected compound (CPD). The internal control was GAPDH or B-Actin (or otherwise indicated), and the gene of interest is the target. First, the averages of the 4 conditions were calculated for normalization: DMSO:GAPDH, DMSO:Target, CPD: GAPDH, and CPD:Target. Next, the ΔCT of both control and treatment were calculated to normalize to internal control (GAPDH) using (DMSO:Target)−(DMSO:GAPDH)=ΔCT control and (CPD:Target)−(CPD: GAPDH)=ΔCT experimental. Then, the ΔΔCT was calculated by ΔCT experimental−ΔCT control. The Expression Fold Change (or Relative Quantification, abbreviated as RQ) was calculated by 2−(ΔΔCT) (2-fold expression change was shown by RNA-Seq results provided herein).\nThe aim of the validation studies was to test the identified compounds from key pathways, and expand the compound franchise to identify other potential hits. Candidate compounds were subjected to validation with qRT-PCR in human hepatocytes. qRT-PCR was performed on samples of primary human hepatocytes from a second donor treated with the candidate compounds. Compounds were tested at concentrations ranging from 0.01 μM to 50 μM, with the majority tested at 10 μM.\nPrimary human hepatocytes and stellate cells were also incubated with inhibitors of the TGFβ pathway and PNPLA3 gene expression changes assessed via qRT-PCR as previously described. In addition, primary hepatocytes and stellate cells were treated with TGFβ-ligand alone or with selected the small molecule inhibitors for 18 hours and subsequently harvested. for gene expression assays.\nThe other set was harvest for mRNA processing as previously described."}, "[2]": {"test_system": "PNPLA3 mRNA", "test": "qRT-PCR of PNPLA3 mRNA in human primary hepatic stellate cells", "assay_type": "cell-based", "conditions": "for Relative PNPLA3 mRNA expression: stellate cells, Table 37; for Relative PNPLA3 nRNA expression in Stellate cells: 16 hours; for Primary Stellate cells PNPLA3 (fold change in mRNA expression): 3 μM"}, "[3]": {"test_system": "COL1A1 mRNA", "test": "qRT-PCR of COL1A1 mRNA in human primary hepatic stellate cells", "assay_type": "cell-based", "conditions": "3 μM, relative to GAPDH"}, "[4]": {"test_system": "PCSK9 mRNA", "test": "qRT-PCR of PCSK9 mRNA in primary hepatocytes", "assay_type": "cell-based, human", "conditions": "donor 4178, 3 μM, relative to GUSB"}, "[5]": {"conditions": "3.3 uM, 16 hours, relative to GUSB"}, "[6]": {"conditions": "10 uM, 16 hours, relative to GUSB"}, "[7]": {"conditions": "Syk pathway inhibitors, normalized to B2M"}},
  "note": "“And” between values parts separate entries of the source, which are not always exact repeats. Identical values can stand only once.",
  "data": [
    {"molecule": "COc1cc(-c2cc(-c3cccc(O)c3)cnc2N)cc(OC)c1OC", "note": "[K02288]", "values": [
      {"measurement": "PNPLA3 mRNA, TGFβ and BMP pathway inhibitors (in words)", "setting": "[1]", "value": "did not decrease PNPLA3 mRNA in primary human hepatocytes"},
      {"measurement": "Relative PNPLA3 mRNA expression", "setting": "[1]; 3.3 uM, Table 35", "value": "1.259 ± 0.3268"},
      {"measurement": "Relative PNPLA3 mRNA expression", "setting": "[1]; 10 uM, Table 35", "value": "2.687 ± 0.4146"}
    ]},
    {"molecule": "c1ccc2c(-c3cnn4cc(-c5ccc(N6CCNCC6)cc5)cnc34)ccnc2c1", "note": "[LDN193189]", "values": [
      {"measurement": "Relative PNPLA3 mRNA expression", "setting": "[2]; 0.01 uM", "value": "0.95 ± 0.09"},
      {"measurement": "Relative PNPLA3 mRNA expression", "setting": "[2]; 0.1 uM", "value": "0.83 ± 0.12"},
      {"measurement": "Relative PNPLA3 mRNA expression", "setting": "[2]; 1 uM", "value": "0.76 ± 0.07"},
      {"measurement": "Relative PNPLA3 mRNA expression", "setting": "[2]; 10 uM", "value": 9.25}
    ]},
    {"molecule": "c1cc(-c2cnn3cc(-c4ccc(N5CCNCC5)cc4)cnc23)c2cccnc2c1", "note": "[LDN212854, LDN-212854]", "values": [
      {"measurement": "PNPLA3 mRNA, TGFβ and BMP pathway inhibitors (in words)", "setting": "[1]", "value": "did not decrease PNPLA3 mRNA in primary human hepatocytes"},
      {"measurement": "Relative PNPLA3 mRNA expression", "setting": "[1]; 3.3 uM, Table 35", "value": "1.095 ± 0.1332"},
      {"measurement": "Relative PNPLA3 mRNA expression", "setting": "[1]; 10 uM, Table 35", "value": "0.9339 ± 0.04093"},
      {"measurement": "Relative PNPLA3 mRNA expression", "setting": "[2]; 0.01 uM", "value": "0.92 ± 0.22"},
      {"measurement": "Relative PNPLA3 mRNA expression", "setting": "[2]; 0.1 uM", "value": "1.02 ± 0.16"},
      {"measurement": "Relative PNPLA3 mRNA expression", "setting": "[2]; 1 uM", "value": "0.67 ± 0.12"},
      {"measurement": "Relative PNPLA3 mRNA expression", "setting": "[2]; 10 uM", "value": "7.43 ± 3.91"}
    ]},
    {"molecule": "N#CCNC(=O)c1ccc(-c2ccnc(Nc3ccc(N4CCOCC4=O)cc3)n2)cc1", "note": "[M21]", "values": [
      {"measurement": "Relative PNLPA3 mRNA expression in HU4282 cells", "setting": "[1]; [5]", "value": "0.213 ± 0.028"},
      {"measurement": "Relative PNLPA3 mRNA expression in HU4282 cells", "setting": "[1]; [6]", "value": "0.138 ± 0.015"},
      {"measurement": "PNPLA3 mRNA expression (in words)", "setting": "[1]; Yecuris RMG and Lonza HU4282 hepatocytes, 16 hours, relative to GUSB", "value": "reduced PNPLA3 mRNA expression in a dose dependent manner"},
      {"measurement": "Relative PNPLA3 mRNA expression in Yecuris RMG cells", "setting": "[1]; [5]", "value": "0.910 ± 0.068"},
      {"measurement": "Relative PNPLA3 mRNA expression in Yecuris RMG cells", "setting": "[1]; [6]", "value": "0.165 ± 0.018"},
      {"measurement": "PNPLA3 mRNA expression (in words)", "setting": "[2]; stellate cells ST1 and ST8, 16 hours, relative to GAPDH", "value": "reduced PNPLA3 mRNA expression, with the most significant decrease after treatment with 3.3 μM M21"},
      {"measurement": "Relative PNPLA3 nRNA expression in Stellate cells", "setting": "[2]; stellate cells donor ST1, 3.3 uM, relative to GAPDH", "value": "0.26 ± 0.11"},
      {"measurement": "Relative PNPLA3 nRNA expression in Stellate cells", "setting": "[2]; stellate cells donor ST1, 10 uM, relative to GAPDH", "value": "0.54 ± 0.10"},
      {"measurement": "Relative PNPLA3 nRNA expression in Stellate cells", "setting": "[2]; stellate cells donor ST8, 3.3 uM, relative to GAPDH", "value": "0.31 ± 0.01"},
      {"measurement": "Relative PNPLA3 nRNA expression in Stellate cells", "setting": "[2]; stellate cells donor ST8, 10 uM, relative to GAPDH", "value": "0.49 ± 0.05"}
    ]},
    {"molecule": "CNS(=O)(=O)C[C@H]1CC[C@H](N(C)c2ncnc3[nH]ccc23)CC1", "note": "[Oclacitinib]", "values": [
      {"measurement": "Relative PNPLA3 mRNA levels", "setting": "[1]; JAK inhibitors, qRT-PCR", "value": "0.56 ± 0.03"},
      {"measurement": "PNPLA3 expression (in words)", "setting": "[1]; validation in human hepatocytes from a second donor, qRT-PCR", "value": "efficient downregulation of PNPLA3"}
    ]},
    {"molecule": "C=CC(=O)N1C[C@H](COc2nc(Nc3cnn(C)c3)nc3[nH]cc(Cl)c23)[C@@H](OC)C1", "note": "[PF-06459988]", "values": [
      {"measurement": "Relative PINPLA3 mRNA", "setting": "[1]; 1 uM", "value": 0.965},
      {"measurement": "Relative PINPLA3 mRNA", "setting": "[1]; 10 uM", "value": 0.398}
    ]},
    {"molecule": "COc1ccc(COc2cc3oc(=O)c4cc(C(C)O)ccc4c3cc2OC)cc1", "note": "(stereo not shown) [Palomid 529 (P529)]", "values": [
      {"measurement": "Primary Stellate cells COL1A1 (fold change in mRNA expression)", "setting": "[3]", "value": 1.10},
      {"measurement": "Primary Stellate cells PNPLA3 (fold change in mRNA expression)", "setting": "[2]; relative to GAPDH", "value": 0.97},
      {"measurement": "Primary Hepatocytes 4178 PCSK9 (fold change in mRNA expression)", "setting": "[4]", "value": 1.05}
    ]},
    {"molecule": "NCCC(O)(P(=O)(O)O)P(=O)(O)O", "note": "[Pamidronate]", "values": [
      {"measurement": "Relative PINPLA3 mRNA", "setting": "[1]; 10 uM", "value": 0.2}
    ]},
    {"molecule": "C/C=C1\\NC(=O)[C@H]2CSSCC/C=C/[C@H](CC(=O)N[C@H](C(C)C)C(=O)N2)OC(=O)[C@H](C(C)C)NC1=O", "note": "[Romidepsin (FK228, Depsipeptide)]", "values": [
      {"measurement": "Relative PINPLA3 mRNA", "setting": "[1]; 10 uM", "value": 0.3}
    ]},
    {"molecule": "N#CC[C@H](C1CCCC1)n1cc(-c2ncnc3[nH]ccc23)cn1", "note": "[Ruxolitinib]", "values": [
      {"measurement": "Relative PNPLA3 mRNA levels", "setting": "[1]; JAK inhibitors, qRT-PCR", "value": "0.89 ± 0.17"}
    ]},
    {"molecule": "CN1C/C=C/CCOc2cccc(c2)-c2ccnc(n2)Nc2cccc(c2)C1", "note": "[SB1317]", "values": [
      {"measurement": "Relative PINPLA3 mRNA", "setting": "[1]; 1 uM", "value": 0.400},
      {"measurement": "Relative PINPLA3 mRNA", "setting": "[1]; 10 uM", "value": 0.413}
    ]},
    {"molecule": "CC1(C)CN(C(=O)c2ccc(-c3cccc4nc(NC(=O)C5CC5)nn34)cc2)C1", "note": "[Solcitinib]", "values": [
      {"measurement": "Relative PNPLA3 mRNA levels", "setting": "[1]; JAK inhibitors, qRT-PCR", "value": "1.10 ± 0.01"}
    ]},
    {"molecule": "Cc1cccc(-c2[nH]c(CNc3ccccc3F)nc2-c2ccc3ncnn3c2)n1", "note": "[TEW-7197]", "values": [
      {"measurement": "Relative PNPLA3 mRNA expression", "setting": "[1]; 0.04 uM, Table 34", "value": "1.219 ± 0.186"},
      {"measurement": "Relative PNPLA3 mRNA expression", "setting": "[1]; 0.12 uM, Table 34", "value": "0.822 ± 0.152"},
      {"measurement": "Relative PNPLA3 mRNA expression", "setting": "[1]; 0.37 uM, Table 34", "value": "0.613 ± 0.035"},
      {"measurement": "Relative PNPLA3 mRNA expression", "setting": "[1]; 3.3 uM, Table 34", "value": "0.560 ± 0.134"}
    ]},
    {"molecule": "Nc1nc(N)c2nc(-c3cccc(O)c3)c(-c3cccc(O)c3)nc2n1", "note": "[TG100-115]", "values": [
      {"measurement": "Primary Stellate cells COL1A1 (fold change in mRNA expression)", "setting": "[3]", "value": 1.11},
      {"measurement": "Primary Stellate cells PNPLA3 (fold change in mRNA expression)", "setting": "[2]; relative to GAPDH", "value": 1.07},
      {"measurement": "Primary Hepatocytes 4178 PCSK9 (fold change in mRNA expression)", "setting": "[4]", "value": 0.69}
    ]},
    {"molecule": "CC[C@@H]1CN(C(=O)NCC(F)(F)F)C[C@@H]1c1cnc2cnc3[nH]ccc3n12", "note": "[Upadacitinib]", "values": [
      {"measurement": "Relative PNPLA3 mRNA levels", "setting": "[1]; JAK inhibitors, qRT-PCR", "value": "0.93 ± 0.15"}
    ]},
    {"molecule": "c1cn2cc(-c3ccc4cn[nH]c4c3)nc(Nc3ccc(N4CCOCC4)cc3)c2n1", "note": "[entospletinib]", "values": [
      {"measurement": "Relative PNPLA3 mRNA levels", "setting": "[1]; [7]", "value": "0.67 ± 0.05"}
    ]},
    {"molecule": "COC(=O)C1=C(C#N)NC(C)=C(C(=O)OC(C)C)C1c1cccc([N+](=O)[O-])c1", "note": "(stereo not shown) [nilvadipine]", "values": [
      {"measurement": "Relative PNPLA3 mRNA levels", "setting": "[1]; [7]", "value": "0.61 ± 0.08"}
    ]},
    {"molecule": "TGFB1", "values": [
      {"measurement": "Relative PNPLA3 mRNA expression", "setting": "[2]; 0.001 ug/ML", "value": "0.93 ± 0.11 and 1.50 ± 0.17"},
      {"measurement": "Relative PNPLA3 mRNA expression", "setting": "[2]; 0.01 ug/ML", "value": "2.35 ± 0.39 and 1.40 ± 0.10"}
    ]}
  ]
}
